Data reported in ChEMBL document CHEMBL1201862, “PubChem BioAssay data set” (2004).
Activity calls are given as the source filed them. No stated cut-off is given here; in the data, actives have a measured AC50 and inactives only a lower limit.

Biological target: Dual specificity tyrosine-phosphorylation-regulated kinase 1A (Rattus norvegicus, UniProt Q63470)
Assay type: biochemical, Homo sapiens

Structure (SMILES): N/C(=N\N=C/c1ccc(-c2ccc(O)c(C(=O)O)c2)o1)N[N+](=O)[O-]
- AC50: 1130 nM (active)
